Laboratory results published in ChEMBL document CHEMBL1201862, “PubChem BioAssay data set” (2004).
Values joined by “and” are separate entries in the source; they are usually repeats but may differ in a detail not shown here. Equal values may be shown once.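 Tested at 5 concentrations; 48 h exposure; 96-well plates; endpoints linearly interpolated, else capped at highest concentration. GI50 = concentration required for 50% inhibition of growth.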 Active and inactive are the calls of the source. Rule as the data show it: active = GI50 up to about 1.1 µM and inactive = higher.

Experiments:
Assay in all cases: NCI tumour cell line growth inhibition, 48 h
MDA-N = tested on: MDA-N
HOP-62 = tested on: HOP-62
SNB-19 = tested on: SNB-19
SK-MEL-2 = tested on: SK-MEL-2
CCRF-CEM = tested on: CCRF-CEM
U-251 = tested on: U-251
MOLT-4 = tested on: MOLT-4
SF-539 = tested on: SF-539
NCI/ADR-RES = tested on: NCI/ADR-RES
TK-10 = tested on: TK-10
KM12 = tested on: KM12
HT-29 = tested on: HT-29
SR = tested on: SR
Hs-578T = tested on: Hs-578T
MDA-MB-231 = tested on: MDA-MB-231
LOX IMVI = tested on: LOX IMVI
EKVX = tested on: EKVX
UACC-62 = tested on: UACC-62
HL-60 = tested on: HL-60
UACC-257 = tested on: UACC-257

| SMILES | GI50 (MDA-N) | GI50 (HOP-62) | GI50 (SNB-19) | GI50 (SK-MEL-2) | GI50 (CCRF-CEM) | GI50 (U-251) | GI50 (MOLT-4) | GI50 (SF-539) | GI50 (NCI/ADR-RES) | GI50 (TK-10) | GI50 (KM12) | GI50 (HT-29) | GI50 (SR) | GI50 (Hs-578T) | GI50 (MDA-MB-231) | GI50 (LOX IMVI) | GI50 (EKVX) | GI50 (UACC-62) | GI50 (HL-60) | GI50 (UACC-257) |
| --- | --- | --- | --- | --- | --- | --- | --- | --- | --- | --- | --- | --- | --- | --- | --- | --- | --- | --- | --- | --- |
| O=C(O)c1cc(/C=C/c2ccc(O)c(O)c2)ccc1O | 34.8 µM (inactive) | > 100 µM (inactive) | > 100 µM (inactive) | > 100 µM (inactive) | 24.5 µM (inactive) | > 100 µM (inactive) | 30.8 µM (inactive) | > 100 µM (inactive) | > 100 µM (inactive) | > 100 µM (inactive) | > 100 µM (inactive) | > 100 µM (inactive) | 38.3 µM (inactive) | > 100 µM (inactive) | > 100 µM (inactive) | > 100 µM (inactive) | > 100 µM (inactive) | > 100 µM (inactive) | 30.7 µM (inactive) | > 100 µM (inactive) |
| O=C1Nc2ccccc2/C1=N/NS(=O)(=O)c1ccc(C(=O)O)cc1 | > 100 µM (inactive) | > 100 µM (inactive) | > 100 µM (inactive) | > 100 µM (inactive) | > 100 µM (inactive) | > 100 µM (inactive) | > 100 µM (inactive) | > 100 µM (inactive) | > 100 µM (inactive) | > 100 µM (inactive) | > 100 µM (inactive) | > 100 µM (inactive) | > 100 µM (inactive) | > 100 µM (inactive) | > 100 µM (inactive) | > 100 µM (inactive) | 74.5 µM (inactive) | > 100 µM (inactive) | > 100 µM (inactive) | > 100 µM (inactive) |
| O=c1[nH]nc(Cc2ccccc2)n1/N=C\c1ccccc1 | > 100 µM (inactive) | 56.6 µM (inactive) |  | 31.2 µM (inactive) | > 100 µM (inactive) | 37.1 µM (inactive) | > 100 µM (inactive) | > 100 µM (inactive) | > 100 µM (inactive) | > 100 µM (inactive) | > 100 µM (inactive) | > 100 µM (inactive) | > 100 µM (inactive) | 76.2 µM (inactive) | > 100 µM (inactive) | > 100 µM (inactive) | > 100 µM (inactive) | 95.5 µM (inactive) | > 100 µM (inactive) | > 100 µM (inactive) |
| CC(=O)N1C(c2[nH]c3ccccc3c2Cc2ccccc2)CCN1c1ccccc1 (configuration not stated) | 7.29 µM (inactive) | > 10 µM (inactive) | > 10 µM (inactive) | > 10 µM (inactive) | 3.66 µM (inactive) |  | 4.4 µM (inactive) | > 10 µM (inactive) | 9.02 µM (inactive) | > 10 µM (inactive) |  | > 10 µM (inactive) | 4.81 µM (inactive) | 9.31 µM (inactive) | > 10 µM (inactive) | > 10 µM (inactive) | > 10 µM (inactive) |  | 5.42 µM (inactive) | > 10 µM (inactive) |
| C/C(=N\OCC(O)CNCCSCc1ccccc1)c1ccccc1Cl (configuration not stated) | 19.6 µM (inactive) | 19.4 µM (inactive) | 18.5 µM (inactive) | 40.4 µM (inactive) | 28.6 µM (inactive) |  | 47.5 µM (inactive) | 19.5 µM (inactive) | 19.1 µM (inactive) | 17 µM (inactive) | 18.6 µM (inactive) | 20.6 µM (inactive) | 31.7 µM (inactive) | 27.7 µM (inactive) | 18 µM (inactive) | 16.8 µM (inactive) | 20 µM (inactive) | 18.6 µM (inactive) | 24 µM (inactive) | 18.5 µM (inactive) |
| C=C1C(=O)OC2/C=C(\CO)C(OC(C)=O)CC(O)/C(C)=C/C(OC(=O)C(C)CC)C12 (configuration not stated) | 18.3 µM (inactive) | > 100 µM (inactive) | 50.1 µM (inactive) and 75.7 µM (inactive) | 17.5 µM (inactive) and 17.1 µM (inactive) |  | 30.1 µM (inactive) and 26.9 µM (inactive) |  | 24.8 µM (inactive) and 19.2 µM (inactive) | > 100 µM (inactive) | 17.6 µM (inactive) and 19.3 µM (inactive) |  | 16.3 µM (inactive) and 21 µM (inactive) | 8 µM (inactive) | 36.9 µM (inactive) | 17.3 µM (inactive) | 18.8 µM (inactive) and 13.7 µM (inactive) | 25.5 µM (inactive) and 25.1 µM (inactive) | 19.4 µM (inactive) and 17.5 µM (inactive) | 5.86 µM (inactive) and 4.97 µM (inactive) | 15.2 µM (inactive) and 18 µM (inactive) |
| Cn1cnc(N)c(N=O)c1=O | > 10 µM (inactive) | > 10 µM (inactive) | > 10 µM (inactive) | > 10 µM (inactive) | > 10 µM (inactive) | > 10 µM (inactive) | > 10 µM (inactive) | > 10 µM (inactive) | > 10 µM (inactive) | > 10 µM (inactive) | > 10 µM (inactive) | > 10 µM (inactive) | > 10 µM (inactive) | > 10 µM (inactive) | > 10 µM (inactive) | > 10 µM (inactive) | > 10 µM (inactive) | > 10 µM (inactive) | > 10 µM (inactive) | > 10 µM (inactive) |
| COC(=O)C12C3C4(C(=O)OC)C1C1(C(=O)OC)C2C3(C(=O)OC)C41C(=O)N(C(C)C)C(C)C (configuration not stated) | > 100 µM (inactive) | > 100 µM (inactive) | > 100 µM (inactive) | > 100 µM (inactive) | > 100 µM (inactive) | > 100 µM (inactive) | > 100 µM (inactive) | > 100 µM (inactive) | > 100 µM (inactive) | > 100 µM (inactive) | > 100 µM (inactive) | > 100 µM (inactive) | > 100 µM (inactive) | > 100 µM (inactive) | > 100 µM (inactive) | > 100 µM (inactive) | > 100 µM (inactive) | > 100 µM (inactive) | > 100 µM (inactive) | > 100 µM (inactive) |
| CN(C)c1nc2n(CCO)c(-c3ccccc3)c(-c3ccccc3)nc-2c(=O)n1 | > 100 µM (inactive) | > 100 µM (inactive) | > 100 µM (inactive) | > 100 µM (inactive) | > 100 µM (inactive) | > 100 µM (inactive) | > 100 µM (inactive) | > 100 µM (inactive) | > 100 µM (inactive) | > 100 µM (inactive) | > 100 µM (inactive) | > 100 µM (inactive) | > 100 µM (inactive) | > 100 µM (inactive) | > 100 µM (inactive) | > 100 µM (inactive) | > 100 µM (inactive) | > 100 µM (inactive) |  | > 100 µM (inactive) |
| CC(C)C(C=O)C(O)(C(F)(F)F)C(F)(F)F (configuration not stated) | > 100 µM (inactive) |  | > 100 µM (inactive) | > 100 µM (inactive) | > 10 µM (inactive) | > 100 µM (inactive) | > 100 µM (inactive) | > 100 µM (inactive) | > 100 µM (inactive) | > 100 µM (inactive) | > 100 µM (inactive) | > 100 µM (inactive) | > 100 µM (inactive) | 59.3 µM (inactive) | > 100 µM (inactive) | > 100 µM (inactive) | > 100 µM (inactive) | > 100 µM (inactive) | > 100 µM (inactive) | > 100 µM (inactive) |
| O=[N+]([O-])c1cc(-c2nnc(C34CC5CC(CC(C5)C3)C4)o2)cc([N+](=O)[O-])c1 | 24.4 µM (inactive) | 59.4 µM (inactive) | > 100 µM (inactive) | 63.4 µM (inactive) | > 100 µM (inactive) | 45.5 µM (inactive) | > 100 µM (inactive) | > 100 µM (inactive) | > 100 µM (inactive) |  | > 100 µM (inactive) | 6.41 µM (inactive) | > 100 µM (inactive) | 64.7 µM (inactive) | 39.2 µM (inactive) | > 100 µM (inactive) | > 100 µM (inactive) | 86.9 µM (inactive) | > 100 µM (inactive) | 83.4 µM (inactive) |
| CC(=O)NC1=C(C)C(=O)c2c(nc3n2CCC3OC(=O)c2ccccc2)C1=N (configuration not stated) | 0.182 µM (active) | 3.09 µM (inactive) | 3.48 µM (inactive) | 1.76 µM (inactive) | 1.58 µM (inactive) | 3.22 µM (inactive) | 1.84 µM (inactive) | 1.25 µM (inactive) | 2.93 µM (inactive) | 3.5 µM (inactive) | 4.55 µM (inactive) | 0.973 µM (active) | 2.29 µM (inactive) | 2.06 µM (inactive) | 2.07 µM (inactive) | 0.406 µM (active) | 2.55 µM (inactive) | 0.314 µM (active) | 1.21 µM (inactive) | 1.24 µM (inactive) |
| Cc1cc(C(=C2C=CC(=N)C=C2)c2ccc(N)cc2)ccc1N [FUCHSIN, BASIC] | 4.72 µM (inactive) | 0.724 µM (active) | 0.615 µM (active) | 3.18 µM (inactive) | 4.19 µM (inactive) |  | 5.51 µM (inactive) | 0.706 µM (active) | 11.7 µM (inactive) | 8.97 µM (inactive) | 2.34 µM (inactive) | 3.66 µM (inactive) | 13.3 µM (inactive) | 0.494 µM (active) | 6.3 µM (inactive) | 2.25 µM (inactive) | 6.04 µM (inactive) | 4.45 µM (inactive) | 3.21 µM (inactive) | 3.65 µM (inactive) |
| CC(C)=CCOc1cc(NC(=S)c2ccoc2C)ccc1Cl [UC 781] | > 100 µM (inactive) | 84.1 µM (inactive) | 81.1 µM (inactive) | > 100 µM (inactive) | 39.6 µM (inactive) | 48.5 µM (inactive) | 9.38 µM (inactive) | > 100 µM (inactive) | > 100 µM (inactive) | > 100 µM (inactive) | > 100 µM (inactive) | > 100 µM (inactive) | > 100 µM (inactive) | 48.6 µM (inactive) | 35.5 µM (inactive) | 14.1 µM (inactive) | > 100 µM (inactive) | > 100 µM (inactive) |  | > 100 µM (inactive) |
